Here are results for 17 compounds from US10654814B2, “Bicyclic hydroxamic acids useful as inhibitors of mammalian histone deacetylase activity” (KANCERA AB, priority 2015, dated 2020).

Where two headings read alike, the source gives them in different places.

Test [1] relates to PBMCs (peripheral blood mononuclear cells) from healthy donors. In words: CellTiter-Blue cell viability assay, healthy PBMC. Format: cell-based. The note with it: 72 hours of treatment. The protocol: (§1) Method for Measurement of Cell Viability
(§2) The CellTiter-Blue® Cell Viability Assay (Promega) provides a homogeneous, fluorometric method for estimating the number of viable cells present in multi-well plates. The assay uses the indicator dye resazurin to measure the metabolic capacity of cells. Viable cells retain the ability to reduce resazurin into resorufin, which is highly fluorescent.
(§3) Stock solutions (10 mM in DMSO) of compounds were serially diluted 1:2 in 11 concentrations. 50 nL/well (10 mM compound stock in DMSO) was acoustically dispensed in 384-well assay plates with an acoustic dispenser (EDC Biosystems ATS-100AV). Final starting concentration in the assay was 20 μM (0.2% DMSO) for test compounds. The following cell-lines (and origin) have been primarily used: PaCa2 (pancreatic), U266 (multiple myeloma), AMO-1 (plasmacytoma), and MDA-MB-231 (breast adenocarcinoma). PBMCs (peripheral blood mononuclear cells) from healthy donors were used as control cells. Cells were seeded in assay plates (384-well black/clear, Greiner #781091) pre-dispensed with compounds, 25 μL/well, and cultured for 72 hours. After 72 hours, Celltiter Blue reagent (Promega # G8081) was diluted 1:10 with PBS and then added to wells (5 μL/well). The plates were incubated for 2 hours following addition of reagent. The plates were read in an EnVision fluorescence reader (PerkinElmer) with Ex544 nm/Em590 nm. Results were calculated as % cell viability compared to background (cells treated with 0.2% DMSO).

The target of test [2] is HDAC3 (Homo sapiens (Human), UniProt O15379). In words: HDAC3 in vitro enzymatic assay (fluorescence). The format is biochemical. The conditions noted are these: Table 4 selectivity profiling. The procedure:
(§4) Biological Tests Method for Measurement of Enzymatic Activity of HDACs Materials & Methods
(§5) All Examples were tested in HDAC1,2,3,6 and 8 in vitro enzymatic assays. The assay principle is well known (Hauser et al. 2009, Bradner et al. 2010) and all necessary reagents like enzymes, substrates, developer and reference compounds are commercially available (see e.g. BPS Biosciences http://www.bpsbioscience.com/). Stock solutions (10 mM in DMSO) of compounds were serially diluted 1:3 in 11 concentrations with a top concentration of 200 μM for HDAC1,2,3 and 2 μM for HDAC6 and HDAC8. The enzymatic reactions were conducted in a mixture containing assay buffer, bovine serum albumin, HDAC substrate, and a test compound. After enzymatic reaction, developer was added and after an additional incubation time, fluorescence intensity was measured at an excitation wavelength of 360 nm and an emission wavelength of 460 nm. All experiments were performed in duplicate.

The target of test [3] is HDAC8 (Homo sapiens (Human), UniProt Q9BY41). In words: HDAC8 in vitro enzymatic assay (fluorescence). The conditions noted are these: Table 4 selectivity profiling. The format is biochemical. The protocol: as §4, §5
Chain of HDAC8 (Q9BY41 whole entry): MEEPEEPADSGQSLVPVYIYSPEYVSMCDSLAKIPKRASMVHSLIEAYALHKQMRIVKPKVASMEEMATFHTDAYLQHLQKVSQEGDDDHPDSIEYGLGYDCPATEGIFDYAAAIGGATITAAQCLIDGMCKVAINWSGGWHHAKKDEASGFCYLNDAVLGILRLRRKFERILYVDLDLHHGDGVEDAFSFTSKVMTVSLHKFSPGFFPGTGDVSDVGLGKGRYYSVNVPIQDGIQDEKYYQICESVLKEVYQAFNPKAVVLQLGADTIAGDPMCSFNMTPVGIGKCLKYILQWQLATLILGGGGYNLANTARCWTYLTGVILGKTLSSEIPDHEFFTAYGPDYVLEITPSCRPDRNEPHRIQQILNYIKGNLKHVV
For test [4], the target named is HDAC1 (Homo sapiens (Human), UniProt Q13547). In words: HDAC1 in vitro enzymatic assay (fluorescence). Format: biochemical. The note with it: Table 4 selectivity profiling. The procedure: as §4, §5
Chain of HDAC1 (Q13547 whole entry): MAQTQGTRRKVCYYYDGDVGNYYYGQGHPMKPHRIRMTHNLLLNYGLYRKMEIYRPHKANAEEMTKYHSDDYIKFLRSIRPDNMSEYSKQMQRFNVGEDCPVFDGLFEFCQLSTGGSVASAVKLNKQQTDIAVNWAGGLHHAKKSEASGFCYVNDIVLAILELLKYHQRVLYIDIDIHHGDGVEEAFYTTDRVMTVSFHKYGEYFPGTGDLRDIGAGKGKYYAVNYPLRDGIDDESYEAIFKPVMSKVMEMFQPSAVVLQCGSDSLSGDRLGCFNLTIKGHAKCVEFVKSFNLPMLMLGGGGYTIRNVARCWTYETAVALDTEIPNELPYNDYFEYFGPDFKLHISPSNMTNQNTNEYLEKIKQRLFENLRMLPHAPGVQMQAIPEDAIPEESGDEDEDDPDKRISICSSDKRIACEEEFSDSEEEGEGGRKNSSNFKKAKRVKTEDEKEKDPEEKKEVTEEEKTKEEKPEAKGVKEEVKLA
Test [5] concerns AMO-1 (plasmacytoma) cells. In words: CellTiter-Blue cell viability assay, AMO-1. Format: cell-based. The conditions noted are these: Homo sapiens, AMO1; 72 hours of treatment. The procedure:
as §1, §2, §3

In test [6] the test system is MDA-MB-231 (breast adenocarcinoma) cells. In words: CellTiter-Blue cell viability assay, MDA-MB-231. Format: cell-based. The conditions noted are these: Homo sapiens, 72 hours of treatment. The protocol:
as §1, §2, §3

The subject of test [7] is U266 (multiple myeloma) cells. In words: CellTiter-Blue cell viability assay, U266. Format: cell-based. The conditions noted are these: Homo sapiens, U-266; 72 hours of treatment. The procedure:
as §1, §2, §3

Test [8] relates to PaCa2 (pancreatic) cells. In words: CellTiter-Blue cell viability assay, PaCa2. The format is cell-based. The note with it: PaCa-2; 72 hours of treatment. The procedure:
as §1, §2, §3

The target in test [9] is HDAC6 (Homo sapiens (Human), UniProt Q9UBN7). In words: HDAC6 in vitro enzymatic assay (fluorescence). Format: biochemical. An outline of the steps:
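Fluorogenic HDAC substrate reactions contained assay buffer, BSA and compound, followed by developer. Fluorescence was read at ex 360/em 460 nm. Compounds were tested as 11-point 1:3 dilutions from a top of 200 μM for HDAC1, 2 and 3, and from 2 μM for HDAC6, in duplicate.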

Test [10] addresses HDAC2 (Homo sapiens (Human), UniProt Q92769). In words: HDAC2 in vitro enzymatic assay (fluorescence). Format: biochemical. The conditions noted are these: Table 4 selectivity profiling. The protocol: as §4, §5
The mark [11] stands for this setting: Table 4 selectivity profiling, read-out: IC50 (nM) HDAC6.
Setting [12] is: Table 3, read-out: IC50 (nM) for inhibition of HDAC6.

Chain of HDAC2 (Q92769 whole entry): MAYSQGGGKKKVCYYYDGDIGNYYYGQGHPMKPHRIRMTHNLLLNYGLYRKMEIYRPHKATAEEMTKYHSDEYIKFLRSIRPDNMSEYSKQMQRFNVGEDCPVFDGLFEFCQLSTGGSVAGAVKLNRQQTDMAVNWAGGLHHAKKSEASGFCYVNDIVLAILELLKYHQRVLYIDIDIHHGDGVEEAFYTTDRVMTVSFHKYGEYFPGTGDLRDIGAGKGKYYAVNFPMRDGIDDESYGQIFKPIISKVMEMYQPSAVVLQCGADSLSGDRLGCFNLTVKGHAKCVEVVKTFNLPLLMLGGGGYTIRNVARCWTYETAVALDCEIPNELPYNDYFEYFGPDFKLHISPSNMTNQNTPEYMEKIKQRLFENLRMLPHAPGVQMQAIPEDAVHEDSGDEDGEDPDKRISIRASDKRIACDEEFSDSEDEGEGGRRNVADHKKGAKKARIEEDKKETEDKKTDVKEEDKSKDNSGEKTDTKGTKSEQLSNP
Chain of HDAC6 (Q9UBN7 whole entry): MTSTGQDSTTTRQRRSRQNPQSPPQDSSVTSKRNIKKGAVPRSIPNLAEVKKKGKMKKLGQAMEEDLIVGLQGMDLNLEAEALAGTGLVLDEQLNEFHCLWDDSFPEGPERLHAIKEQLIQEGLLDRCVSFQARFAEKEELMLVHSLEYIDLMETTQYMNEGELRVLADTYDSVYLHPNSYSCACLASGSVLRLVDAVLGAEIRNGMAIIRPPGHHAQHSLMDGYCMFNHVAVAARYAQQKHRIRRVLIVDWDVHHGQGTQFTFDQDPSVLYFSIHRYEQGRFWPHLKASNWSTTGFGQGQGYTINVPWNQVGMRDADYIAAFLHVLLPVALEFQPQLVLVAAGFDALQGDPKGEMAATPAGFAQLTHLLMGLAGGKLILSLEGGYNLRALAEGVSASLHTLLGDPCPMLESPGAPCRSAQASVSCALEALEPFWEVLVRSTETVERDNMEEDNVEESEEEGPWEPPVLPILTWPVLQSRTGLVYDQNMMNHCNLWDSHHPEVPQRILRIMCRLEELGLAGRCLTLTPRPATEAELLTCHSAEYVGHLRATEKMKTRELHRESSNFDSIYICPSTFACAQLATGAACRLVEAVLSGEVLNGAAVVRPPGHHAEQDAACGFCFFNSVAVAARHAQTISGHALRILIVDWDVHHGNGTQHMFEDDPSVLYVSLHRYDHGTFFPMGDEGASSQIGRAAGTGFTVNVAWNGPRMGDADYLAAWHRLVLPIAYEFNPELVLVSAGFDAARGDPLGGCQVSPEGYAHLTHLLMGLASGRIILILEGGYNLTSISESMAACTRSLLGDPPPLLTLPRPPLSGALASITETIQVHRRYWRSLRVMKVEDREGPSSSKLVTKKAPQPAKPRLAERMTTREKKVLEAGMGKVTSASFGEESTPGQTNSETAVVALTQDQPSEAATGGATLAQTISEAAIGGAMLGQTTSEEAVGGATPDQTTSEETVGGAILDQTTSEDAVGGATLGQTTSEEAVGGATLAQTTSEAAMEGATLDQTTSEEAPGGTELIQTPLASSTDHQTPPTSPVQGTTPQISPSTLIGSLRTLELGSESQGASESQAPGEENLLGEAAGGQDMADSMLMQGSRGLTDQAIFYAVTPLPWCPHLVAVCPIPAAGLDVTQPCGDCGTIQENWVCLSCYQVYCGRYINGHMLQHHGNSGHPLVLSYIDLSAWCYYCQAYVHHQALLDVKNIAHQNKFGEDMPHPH
Chain of HDAC3 (O15379 whole entry): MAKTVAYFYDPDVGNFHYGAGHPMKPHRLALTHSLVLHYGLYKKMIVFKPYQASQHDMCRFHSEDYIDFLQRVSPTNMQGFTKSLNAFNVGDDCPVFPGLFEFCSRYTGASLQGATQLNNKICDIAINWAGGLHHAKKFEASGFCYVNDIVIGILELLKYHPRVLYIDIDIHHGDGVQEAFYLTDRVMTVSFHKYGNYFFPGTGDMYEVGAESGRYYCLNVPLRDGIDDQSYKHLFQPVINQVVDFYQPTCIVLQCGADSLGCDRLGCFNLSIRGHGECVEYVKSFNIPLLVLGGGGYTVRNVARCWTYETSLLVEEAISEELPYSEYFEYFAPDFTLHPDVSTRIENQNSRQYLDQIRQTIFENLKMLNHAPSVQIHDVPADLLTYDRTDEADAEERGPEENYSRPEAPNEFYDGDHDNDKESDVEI
Chain of HDAC3 (Q9Y618 395-489 partner): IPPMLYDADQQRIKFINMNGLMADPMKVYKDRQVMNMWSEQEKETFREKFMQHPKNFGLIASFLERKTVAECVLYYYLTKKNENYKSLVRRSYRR

On to `O=C(NO)c1ccc2oc(-c3ccc(OC(F)(F)F)cc3)nc2c1` [Example 9, N-hydroxy-2-[4-(trifluoromethoxy)phenyl]-1,3-benzoxazole-5-carboxamide], for which the IC50 was greater than 20 µM in test [1]; 1700 nM in test [2]; 800 nM in test [3]; 6000 nM in test [4]; 0.9 µM in test [5]; 1.4 µM in test [6]. Further, the IC50 in test [7] turned out to be 0.91 µM; in test [8], 1.9 µM; in test [9] (setting [11]) it was 38 nM; in test [10] it was 76000 nM.
`O=C(NO)c1ccc2sc(-c3cccc(C(F)(F)F)c3)cc2c1` [Example 90, N-hydroxy-2-[3-(trifluoromethyl)phenyl]-1-benzothiophene-5-carboxamide]: the IC50 in [1] was greater than 20 µM; in test [5] it was 0.5 µM; in [6], 0.81 µM; in test [7] it was 0.58 µM; in test [8], 0.8 µM; in test [9] (setting [12]), 28 nM.
With `CC(C)(C)c1ccc(-c2nc3cc(C(=O)NO)ccc3o2)cc1` [Example 4, 2-(4-tert-butylphenyl)-N-hydroxy-1,3-benzoxazole-5-carboxamide], the IC50 is greater than 20 µM in test [1]; 410 nM in test [2]; 1000 nM in test [3]; 1100 nM in test [4]; 0.38 µM in [5]; 0.81 µM in test [6]. Further, the IC50 turned out to be 0.49 µM in test [7]; 0.75 µM in test [8]; 5 nM in [9] (setting [12]); 5 nM in [9] (setting [11]); 19000 nM in test [10].
As to `CC(C)c1ccc(-c2cc3cc(C(=O)NO)ccc3o2)cc1` [Example 111, N-Hydroxy-2-[4-(1-methylethyl)phenyl]-1-benzofuran-5-carboxamide], the IC50 is greater than 20 µM in [1]; 0.67 µM in test [5]; 1.2 µM in test [6]; 0.67 µM in [7]; 1.3 µM in test [8].
Regarding `COc1ccncc1-c1ccc(-c2nc3cc(C(=O)NO)ccc3o2)cc1` [Example 26, N-hydroxy-2-[4-(4-methoxypyridin-3-yl)phenyl]-1,3-benzoxazole-5-carboxamide], the IC50 was greater than 20 µM in [1]; 0.61 µM in test [5]; 1.7 µM in test [6]; 1.1 µM in test [7]; 1.1 µM in test [8]; 5 nM in test [9] (setting [12]).
Regarding `CC(C)(C)c1ccc(-c2cc3cc(C(=O)NO)ccc3s2)cc1` [Example 103, 2-(4-tert-butylphenyl)-N-hydroxy-1-benzothiophene-5-carboxamide], the IC50 in [1] was greater than 20 µM; in [5], 0.49 µM; in test [6], 0.6 µM; in test [7] it was 0.55 µM; in test [8] it was 1.46 µM.
`CC(C)c1ccc(-c2nc3ccc(C(=O)NO)cc3s2)cc1` [Example 61]: the IC50 was greater than 20 µM in [1]; 0.81 µM in test [5]; 1.8 µM in test [6]; 1.1 µM in [7]; 0.9 µM in test [8].
Regarding `CC(C)c1ccc(-c2cc3ccc(C(=O)NO)cc3o2)cc1` [Example 112, N-Hydroxy-2-[4-(1-methylethyl)phenyl]-1-benzofuran-6-carboxamide], the IC50 in test [1] is greater than 20 µM; in [5] it was 0.46 µM; in test [6] it was 1.2 µM; in [7], 0.58 µM; in test [8], 0.89 µM; in test [9] (setting [12]) it was 7 nM.
Turning to `COc1ccc(-c2ccc(-c3nc4cc(C(=O)NO)ccc4o3)c(F)c2)cn1` [Example 176, 2-[2-fluoro-4-(6-methoxypyridin-3-yl)phenyl]-N-hydroxy-1,3-benzoxazole-5-carboxamide], the IC50 in test [2] is 960 nM; in [3], 384 nM; in test [4], greater than 200000 nM; in test [9] (setting [11]), 16 nM; in test [10], greater than 200000 nM.
On to `Cc1noc(C)c1-c1cc2cc(C(=O)NO)ccc2s1` [Example 100, 2-(3,5-dimethylisoxazol-4-yl)-N-hydroxy-1-benzothiophene-5-carboxamide], for which the IC50 was found to be 18000 nM in test [2]; 760 nM in test [3]; 14000 nM in test [4]; 36 nM in test [9] (setting [12]); 36 nM in test [9] (setting [11]); 74000 nM in [10].
Regarding `O=C(NO)c1ccc2oc(COc3cccc(F)c3)cc2c1` [Example 162, 2-[(3-Fluorophenoxy)methyl]-N-hydroxy-1-benzofuran-5-carboxamide], the IC50 in test [2] was found to be 320 nM; in test [3], 1500 nM; in test [4], 550 nM; in [9] (setting [12]) it was 7 nM; in test [9] (setting [11]), 7 nM; in [10], 3500 nM.
On to `CC(C)Oc1ccc(-c2cc3cc(C(=O)NO)ccc3s2)cc1Cl` [Example 107, 2-[3-chloro-4-(1-methylethoxy)phenyl]-N-hydroxy-1-benzothiophene-5-carboxamide], for which the IC50 in test [1] is greater than 20 µM; in test [5], 0.37 µM; in [6], 0.42 µM; in test [7] it was 0.42 µM; in [8], 1.3 µM.
For `CC(C)c1ccc(-c2cc3ccc(C(=O)NO)cc3[nH]2)cc1` [Example 59, N-Hydroxy-2-[4-(1-methylethyl)phenyl]-1H-indole-6-carboxamide], the IC50 in test [1] is greater than 20 µM; in [5], 0.66 µM; in test [6], 1.2 µM; in test [7], 1.7 µM; in test [8], 1.4 µM.
With `O=C(NO)c1ccc2sc(-c3ccc(OC(F)(F)F)cc3)cc2c1` [Example 102, N-hydroxy-2-[4-(trifluoromethoxy)phenyl]-1-benzothiophene-5-carboxamide], the IC50 in [1] was greater than 20 µM; in [5], 0.47 µM; in [6], 0.41 µM; in test [7] it was 0.64 µM; in test [8], 2.48 µM; in test [9] (setting [12]) it was 70 nM.
Consider `COc1ccc(F)cc1-c1ccc(-c2nc3cc(C(=O)NO)ccc3o2)c(F)c1` [Example 193, 2-(3,5′-difluoro-2′-methoxybiphenyl-4-yl)-N-hydroxy-1,3-benzoxazole-5-carboxamide], for which the IC50 in test [1] was greater than 20 µM; in test [5] it was 2.3 µM; in test [6], 0.98 µM; in test [7], 1.2 µM; in test [8], 2.2 µM.
`O=C(NO)c1ccc2sc(-c3ccc(F)cc3)nc2c1` [Example 76, 2-(4-Fluorophenyl)-N-hydroxy-1,3-benzothiazole-5-carboxamide]: the IC50 in test [2] was 450 nM; in test [3] it was 340 nM; in [4] it was 1500 nM; in test [9] (setting [12]), 18 nM; in [9] (setting [11]) it was 18 nM; in [10], 6600 nM.
In the case of `CC(C)c1ccc(-c2cc3cc(C(=O)NO)cnc3o2)cc1` [Example 113, N-Hydroxy-2-[4-(1-methylethyl)phenyl]furo[2,3-b]pyridine-5-carboxamide], the IC50 in test [2] is 330 nM; in test [3] it was 120 nM; in test [4], 500 nM; in [9] (setting [12]), 22 nM; in test [9] (setting [11]), 22 nM; in test [10] it was 2000 nM.
